Data taken from ChEMBL document CHEMBL3352139, “Unambiguous Determination of the Absolute Configuration of Dimeric Stilbene Glucosides from the Rhizomes of Gnetum africanum” (J Nat Prod, 2014).

Molecular target: Amyloid-beta precursor protein (Homo sapiens) (UniProt P05067)
Assay: Inhibition of Amyloid beta (25 to 35) (unknown origin) polymerization assessed as reduction in beta-amyloid fibril formation at 10 uM after 6 hrs by UV-visible spectroscopy

Amyloid-beta precursor protein (Homo sapiens), sequence (P05067 whole entry): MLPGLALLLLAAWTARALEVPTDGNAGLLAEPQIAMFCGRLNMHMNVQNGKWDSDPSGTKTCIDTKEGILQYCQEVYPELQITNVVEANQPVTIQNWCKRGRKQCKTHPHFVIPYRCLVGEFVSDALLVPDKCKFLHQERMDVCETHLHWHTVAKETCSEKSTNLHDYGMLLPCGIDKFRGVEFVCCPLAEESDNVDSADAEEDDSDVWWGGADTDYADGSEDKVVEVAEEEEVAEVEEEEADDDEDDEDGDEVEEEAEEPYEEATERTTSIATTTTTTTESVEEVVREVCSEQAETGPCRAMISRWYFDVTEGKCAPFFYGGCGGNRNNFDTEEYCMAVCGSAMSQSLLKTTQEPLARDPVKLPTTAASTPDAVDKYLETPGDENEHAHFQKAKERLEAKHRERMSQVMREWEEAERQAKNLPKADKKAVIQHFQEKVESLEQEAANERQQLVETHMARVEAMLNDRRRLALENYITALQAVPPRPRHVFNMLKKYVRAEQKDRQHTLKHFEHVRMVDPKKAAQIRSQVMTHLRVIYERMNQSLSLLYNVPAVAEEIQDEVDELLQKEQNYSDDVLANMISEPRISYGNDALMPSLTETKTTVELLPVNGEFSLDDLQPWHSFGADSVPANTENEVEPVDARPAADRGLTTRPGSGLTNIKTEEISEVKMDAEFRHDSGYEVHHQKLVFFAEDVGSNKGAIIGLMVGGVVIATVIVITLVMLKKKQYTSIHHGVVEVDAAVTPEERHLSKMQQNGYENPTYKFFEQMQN

Structure (SMILES)	inhibition
OC[C@H]1O[C@@H](Oc2ccc(/C=C/c3cc(O)c4c(c3)O[C@H](c3ccc(O)cc3)[C@H]4c3cc(O)cc(O)c3)cc2)[C@H](O)[C@@H](O)[C@@H]1O	54%
OC[C@H]1O[C@@H](Oc2ccc([C@H]3Oc4cc(/C=C/c5ccc(O)cc5)cc(O)c4[C@@H]3c3cc(O)cc(O)c3)cc2)[C@H](O)[C@@H](O)[C@@H]1O	58%
OC[C@H]1O[C@@H](Oc2ccc(/C=C/c3cc(O)c4c(c3)O[C@@H](c3ccc(O[C@@H]5O[C@H](CO)[C@@H](O)[C@H](O)[C@H]5O)cc3)[C@@H]4c3cc(O)cc(O)c3)cc2)[C@H](O)[C@@H](O)[C@@H]1O	56%
OC[C@H]1O[C@@H](Oc2ccc(/C=C/c3cc(O)c4c(c3)O[C@H](c3ccc(O[C@@H]5O[C@H](CO)[C@@H](O)[C@H](O)[C@H]5O)cc3)[C@H]4c3cc(O)cc(O)c3)cc2)[C@H](O)[C@@H](O)[C@@H]1O	56%
